ChEMBL document CHEMBL1201861, “Genomics of Drug Sensitity in Cancer screening data, Wellcome Trust Sanger Institute”

Columns and labels:
Experiment in all cases: cells
Settings in all cases: Homo sapiens
[1] = system: SK-MEL-2; format: functional, cell-based;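 further: growth inhibition of human SK-MEL-2 cells measured with a cell viability assay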
Description: SANGER: Inhibition of human SK-MEL-2 cell growth in a cell viability assay.

[2] = system: HDLM-2; format: functional, cell-based;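 further: cell viability assay measuring suppression of HDLM-2 proliferation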
Description: SANGER: Inhibition of human HDLM-2 cell growth in a cell viability assay.

[3] = system: TE-12; format: functional, cell-based;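 further: growth inhibition of TE-12 cells, read out by a cell viability assay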
Description: SANGER: Inhibition of human TE-12 cell growth in a cell viability assay.

[4] = system: D-263MG; format: functional, cell-based
Description: SANGER: Inhibition of human D-263MG cell growth in a cell viability assay.

[5] = system: TGBC1TKB; format: functional, cell-based;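 further: growth inhibition of TGBC1TKB cells, read out by a cell viability assay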
Description: SANGER: Inhibition of human TGBC1TKB cell growth in a cell viability assay.

[6] = system: TE-5; format: functional, cell-based;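 further: inhibition of cell growth, read out by a cell viability assay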
Description: SANGER: Inhibition of human TE-5 cell growth in a cell viability assay.

[7] = system: HEL; format: functional, cell-based;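 further: growth inhibition of HEL cells, read out with a cell viability assay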
Description: SANGER: Inhibition of human HEL cell growth in a cell viability assay.

[8] = system: LNCaP-Clone-FGC; format: functional, cell-based
Description: SANGER: Inhibition of human LNCaP-Clone-FGC cell growth in a cell viability assay.

[9] = system: HAL-01; format: functional, cell-based;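 further: growth inhibition of human HAL-01 cells, read out with a cell viability assay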
Description: SANGER: Inhibition of human HAL-01 cell growth in a cell viability assay.

[10] = system: IST-MEL1; format: functional, cell-based;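 further: growth inhibition of the cell line, read out with a cell viability assay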
Description: SANGER: Inhibition of human IST-MEL1 cell growth in a cell viability assay.

[11] = system: NB10; format: functional, cell-based;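 further: growth inhibition of NB10 cells, read out by a cell viability assay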
Description: SANGER: Inhibition of human NB10 cell growth in a cell viability assay.

[12] = system: COLO-684; format: functional, cell-based
Description: SANGER: Inhibition of human COLO-684 cell growth in a cell viability assay.

[13] = system: ES6; format: functional, cell-based;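 further: growth inhibition of human ES6 cells, read out with a cell viability assay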
Description: SANGER: Inhibition of human ES6 cell growth in a cell viability assay.

[14] = system: COLO-668; format: functional, cell-based
Description: SANGER: Inhibition of human COLO-668 cell growth in a cell viability assay.

[15] = system: no-11; format: functional, cell-based;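 further: growth inhibition of human NO-11 cells, read out with a cell viability assay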
Description: SANGER: Inhibition of human no-11 cell growth in a cell viability assay.

[16] = system: KE-37; format: functional, cell-based;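 further: growth inhibition of KE-37 cells, read out with a cell viability assay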
Description: SANGER: Inhibition of human KE-37 cell growth in a cell viability assay.

[17] = system: DOHH-2; format: functional, cell-based;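 further: growth inhibition of human DOHH-2 cells, read out with a cell viability assay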
Description: SANGER: Inhibition of human DOHH-2 cell growth in a cell viability assay.

[18] = system: HD-MY-Z; format: functional, cell-based;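 further: growth inhibition of HD-MY-Z cells, read out with a cell viability assay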
Description: SANGER: Inhibition of human HD-MY-Z cell growth in a cell viability assay.

[19] = system: SHP77; format: functional, cell-based, SHP-77;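 further: growth inhibition of human SHP-77 cells measured by a cell viability assay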
Description: SANGER: Inhibition of human SHP-77 cell growth in a cell viability assay.

[20] = system: C2BBe1; format: functional, cell-based;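 further: growth inhibition of C2BBe1 cells, read out through a viability assay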
Description: SANGER: Inhibition of human C2BBe1 cell growth in a cell viability assay.

[21] = system: AM-38; format: functional, cell-based;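 further: growth inhibition of AM-38 cells of human origin, read out by a cell viability assay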
Description: SANGER: Inhibition of human AM-38 cell growth in a cell viability assay.

[22] = system: NEC8; format: functional, cell-based;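 further: growth inhibition of human NEC8 cells, read out by a cell viability assay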
Description: SANGER: Inhibition of human NEC8 cell growth in a cell viability assay.

[23] = system: COLO-800; format: functional, cell-based;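 further: growth inhibition of COLO-800 cells, read out with a cell viability assay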
Description: SANGER: Inhibition of human COLO-800 cell growth in a cell viability assay.

[24] = system: LAMA-84; format: functional, cell-based;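 further: growth inhibition of LAMA-84 cells, read out with a cell viability assay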
Description: SANGER: Inhibition of human LAMA-84 cell growth in a cell viability assay.

[25] = system: NCI-H1770; format: functional, cell-based;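 further: growth inhibition of NCI-H1770 cells determined with a viability readout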
Description: SANGER: Inhibition of human NCI-H1770 cell growth in a cell viability assay.

[26] = system: SCH; format: functional, cell-based;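 further: growth inhibition of human SCH cells, read out in a cell viability assay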
Description: SANGER: Inhibition of human SCH cell growth in a cell viability assay.

[27] = system: MPP-89; format: functional, cell-based;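 further: growth inhibition of human MPP-89 cells, read out with a cell viability assay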
Description: SANGER: Inhibition of human MPP-89 cell growth in a cell viability assay.

[28] = system: IST-MES1; format: functional, cell-based;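 further: growth inhibition of IST-MES1 cells, measured with a cell viability assay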
Description: SANGER: Inhibition of human IST-MES1 cell growth in a cell viability assay.

[29] = system: NCI-H747; format: functional, cell-based;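 further: growth inhibition of human NCI-H747 cells, read out by a cell viability assay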
Description: SANGER: Inhibition of human NCI-H747 cell growth in a cell viability assay.

[30] = system: A498; format: functional, cell-based;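 further: growth inhibition of human A498 cells, read out with a cell viability assay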
Description: SANGER: Inhibition of human A498 cell growth in a cell viability assay.

[31] = system: SW872; format: functional, cell-based;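 further: growth inhibition of SW872 cells, read out by a viability assay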
Description: SANGER: Inhibition of human SW872 cell growth in a cell viability assay.

[32] = system: EKVX; format: functional, cell-based;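 further: growth inhibition of human EKVX cells, read out with a cell viability assay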
Description: SANGER: Inhibition of human EKVX cell growth in a cell viability assay.

[33] = system: no-10; format: functional, cell-based;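 further: growth inhibition of no-10 cells, read out with a cell viability assay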
Description: SANGER: Inhibition of human no-10 cell growth in a cell viability assay.

[34] = system: RH-1; format: functional, cell-based;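 further: growth inhibition of human RH-1 cells, read out with a cell viability assay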
Description: SANGER: Inhibition of human RH-1 cell growth in a cell viability assay.

[35] = system: K5; format: functional, cell-based
Description: SANGER: Inhibition of human K5 cell growth in a cell viability assay.

[36] = system: TE-1; format: functional, cell-based;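 further: growth inhibition of the human TE-1 cell line, read out with a cell viability assay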
Description: SANGER: Inhibition of human TE-1 cell growth in a cell viability assay.

[37] = system: SNU1; format: functional, cell-based;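 further: growth inhibition of human NCI-SNU-1 cells, measured with a cell viability assay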
Description: SANGER: Inhibition of human NCI-SNU-1 cell growth in a cell viability assay.

[38] = system: KM-H2; format: functional, cell-based;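 further: growth inhibition of KM-H2 cells, read out by a cell viability assay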
Description: SANGER: Inhibition of human KM-H2 cell growth in a cell viability assay.

[39] = system: NCI-H23; format: functional, cell-based;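 further: cell viability assay measuring growth inhibition of NCI-H23 cells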
Description: SANGER: Inhibition of human NCI-H23 cell growth in a cell viability assay.

[40] = system: J-RT3-T3-5; format: functional, cell-based;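 further: cell viability assay measuring growth inhibition of human J-RT3-T3-5 cells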
Description: SANGER: Inhibition of human J-RT3-T3-5 cell growth in a cell viability assay.

[41] = system: SH-4; format: functional, cell-based;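 further: growth inhibition of SH-4 cells, read out with a cell viability assay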
Description: SANGER: Inhibition of human SH-4 cell growth in a cell viability assay.

[42] = system: SF-126; format: functional, cell-based;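 further: growth inhibition of human SF126 cells, read out with a cell viability assay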
Description: SANGER: Inhibition of human SF126 cell growth in a cell viability assay.

[43] = system: GAK; format: functional, cell-based;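 further: cell growth inhibition read out by a cell viability assay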
Description: SANGER: Inhibition of human GAK cell growth in a cell viability assay.

[44] = system: KNS-81-FD; format: functional, cell-based;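 further: growth inhibition of KNS-81-FD cells, read out with a cell viability assay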
Description: SANGER: Inhibition of human KNS-81-FD cell growth in a cell viability assay.

[45] = system: A704; format: functional, cell-based;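 further: growth inhibition of human A704 cells, read out with a cell viability assay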
Description: SANGER: Inhibition of human A704 cell growth in a cell viability assay.

[46] = system: ATN-1; format: functional, cell-based;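 further: growth inhibition of human ATN-1 cells, read out with a cell viability assay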
Description: SANGER: Inhibition of human ATN-1 cell growth in a cell viability assay.

[47] = system: GI-1; format: functional, cell-based;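 further: growth inhibition of human GI-1 cells, measured with a cell viability readout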
Description: SANGER: Inhibition of human GI-1 cell growth in a cell viability assay.

[48] = system: SW 954; format: functional, cell-based;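 further: growth inhibition of SW954 human cancer cells, read out as cell viability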
Description: SANGER: Inhibition of human SW954 cell growth in a cell viability assay.

[49] = system: COLO-824; format: functional, cell-based
Description: SANGER: Inhibition of human COLO-824 cell growth in a cell viability assay.

[50] = system: ES8; format: functional, cell-based;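 further: growth inhibition of human ES8 cells, read out with a cell viability assay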
Description: SANGER: Inhibition of human ES8 cell growth in a cell viability assay.

[51] = system: SW684; format: functional, cell-based;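 further: growth inhibition of human SW684 cells, measured by a cell viability assay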
Description: SANGER: Inhibition of human SW684 cell growth in a cell viability assay.

[52] = system: NOS-1; format: functional, cell-based;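 further: growth inhibition of the human NOS-1 cell line, read out with a cell viability assay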
Description: SANGER: Inhibition of human NOS-1 cell growth in a cell viability assay.

[53] = system: ETK-1; format: functional, cell-based;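 further: growth inhibition of human ETK-1 cells, read out with a cell viability assay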
Description: SANGER: Inhibition of human ETK-1 cell growth in a cell viability assay.

[54] = system: EW-13; format: functional, cell-based;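 further: growth inhibition of EW-13 cells, read out with a cell viability assay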
Description: SANGER: Inhibition of human EW-13 cell growth in a cell viability assay.

[55] = system: U-87 MG; format: functional, cell-based, U-87MG ATCC
Description: SANGER: Inhibition of human U-87-MG cell growth in a cell viability assay.

[56] = system: QIMR-WIL; format: functional, cell-based
Description: SANGER: Inhibition of human QIMR-WIL cell growth in a cell viability assay.

[57] = system: EW-16; format: functional, cell-based
Description: SANGER: Inhibition of human EW-16 cell growth in a cell viability assay.

[58] = system: MHH-NB-11; format: functional, cell-based
Description: SANGER: Inhibition of human MHH-NB-11 cell growth in a cell viability assay.

[59] = system: EW-11; format: functional, cell-based
Description: SANGER: Inhibition of human EW-11 cell growth in a cell viability assay.

[60] = system: SBC-1; format: functional, cell-based
Description: SANGER: Inhibition of human SBC-1 cell growth in a cell viability assay.

[61] = system: Lu-65; format: functional, cell-based
Description: SANGER: Inhibition of human LU-65 cell growth in a cell viability assay.

`O=c1cc(N2CCOCC2)oc2c(-c3cccc4c3sc3ccccc34)cccc12` gave an IC50 [1] greater than 2 µM, an IC50 [2] of 0.323 µM and an IC50 [3] greater than 2 µM. It also gave an IC50 [4] greater than 2 µM, an IC50 [5] greater than 2 µM and an IC50 [6] greater than 2 µM. For the same compound, the IC50 [7] was greater than 2 µM, the IC50 [8] was greater than 2 µM and the IC50 [9] was greater than 2 µM. The IC50 [10] was greater than 2 µM, the IC50 [11] was greater than 2 µM and the IC50 [12] was greater than 2 µM. It also gave an IC50 [13] greater than 2 µM, an IC50 [14] greater than 2 µM and an IC50 [15] greater than 2 µM. The IC50 [16] was greater than 2 µM, the IC50 [17] was greater than 2 µM and the IC50 [18] was greater than 2 µM. It also gave an IC50 [19] greater than 2 µM, an IC50 [20] greater than 2 µM and an IC50 [21] greater than 2 µM. For the same compound, the IC50 [22] was 1.55 µM, the IC50 [23] was greater than 2 µM and the IC50 [24] was 0.988 µM. The IC50 [25] was 0.0214 µM, the IC50 [26] was greater than 2 µM and the IC50 [27] was greater than 2 µM. For the same compound, the IC50 [28] was greater than 2 µM, the IC50 [29] was greater than 2 µM and the IC50 [30] was greater than 2 µM. The IC50 [31] was greater than 2 µM, the IC50 [32] was greater than 2 µM and the IC50 [33] was greater than 2 µM. For the same compound, the IC50 [34] was greater than 2 µM, the IC50 [35] was greater than 2 µM and the IC50 [36] was greater than 2 µM. The IC50 [37] was 0.61 µM, the IC50 [38] was greater than 2 µM and the IC50 [39] was greater than 2 µM. The IC50 [40] was greater than 2 µM, the IC50 [41] was greater than 2 µM and the IC50 [42] was greater than 2 µM. It also gave an IC50 [43] greater than 2 µM, an IC50 [44] greater than 2 µM and an IC50 [45] greater than 2 µM. The IC50 [46] was greater than 2 µM, the IC50 [47] was greater than 2 µM and the IC50 [48] was greater than 2 µM. The IC50 [49] was greater than 2 µM, the IC50 [50] was greater than 2 µM and the IC50 [51] was greater than 2 µM. It also gave an IC50 [52] greater than 2 µM, an IC50 [53] greater than 2 µM and an IC50 [54] greater than 2 µM. The IC50 [55] was greater than 2 µM, the IC50 [56] was greater than 2 µM and the IC50 [57] was greater than 2 µM. For the same compound, the IC50 [58] was greater than 2 µM and the IC50 [59] was greater than 2 µM.

`NC(=O)c1ncn([C@@H]2O[C@H](COP(=O)(O)O)[C@@H](O)[C@H]2O)c1N` showed an IC50 [1] greater than 2000 µM, an IC50 [2] of 1780 µM and an IC50 [3] greater than 2000 µM. It also gave an IC50 [4] greater than 2000 µM, an IC50 [5] of 814 µM and an IC50 [6] greater than 2000 µM. It also gave an IC50 [7] of 804 µM, an IC50 [8] greater than 2000 µM and an IC50 [9] of 434 µM. It also gave an IC50 [10] greater than 2000 µM, an IC50 [11] greater than 2000 µM and an IC50 [12] of 894 µM. It also gave an IC50 [13] greater than 2000 µM, an IC50 [14] greater than 2000 µM and an IC50 [15] greater than 2000 µM. The IC50 [16] was 534 µM, the IC50 [17] was 1310 µM and the IC50 [18] was 1950 µM. The IC50 [19] was greater than 2000 µM, the IC50 [20] was 597 µM and the IC50 [21] was 1030 µM. It also gave an IC50 [60] of 1400 µM, an IC50 [22] greater than 2000 µM and an IC50 [23] greater than 2000 µM. It also gave an IC50 [24] of 435 µM, an IC50 [25] of 485 µM and an IC50 [26] greater than 2000 µM. For the same compound, the IC50 [27] was greater than 2000 µM, the IC50 [29] was 1650 µM and the IC50 [30] was greater than 2000 µM. It also gave an IC50 [31] greater than 2000 µM, an IC50 [32] greater than 2000 µM and an IC50 [33] greater than 2000 µM. The IC50 [34] was greater than 2000 µM, the IC50 [35] was greater than 2000 µM and the IC50 [36] was 207 µM. For the same compound, the IC50 [61] was greater than 2000 µM, the IC50 [37] was 464 µM and the IC50 [38] was 1170 µM. For the same compound, the IC50 [39] was greater than 2000 µM, the IC50 [40] was greater than 2000 µM and the IC50 [41] was greater than 2000 µM. It also gave an IC50 [42] greater than 2000 µM, an IC50 [43] greater than 2000 µM and an IC50 [44] greater than 2000 µM. The IC50 [45] was greater than 2000 µM, the IC50 [46] was 412 µM and the IC50 [48] was 412 µM. The IC50 [49] was 1130 µM, the IC50 [50] was greater than 2000 µM and the IC50 [51] was 896 µM. The IC50 [52] was 524 µM, the IC50 [53] was 541 µM and the IC50 [54] was greater than 2000 µM. It also gave an IC50 [55] greater than 2000 µM, an IC50 [56] of 486 µM and an IC50 [57] greater than 2000 µM. It also gave an IC50 [58] of 1110 µM and an IC50 [59] of 1090 µM.
